According to ChEMBL document CHEMBL1201862, “PubChem BioAssay data set” (2004):
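How tested: cells in 96-well plates exposed to compound for 48 hours at five concentrations. GI50 is the concentration that inhibits growth by half.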 Calls of active or inactive are those of the source. No stated cut-off is given here; in the data, active = GI50 up to about 1.1 µM and inactive = higher. *1 amine or outer side, *2 acyl side, *3 side chain or, on linkers, in order; H or OH if unused. Where a SMILES comes first, the peptide text is derived from it. [ ]: non-standard residue; d: D form. The star is where a group is joined. ξ: configuration not given here. X26 = O=C([C@H]1CCC[C@H]1N[*:1])[*:2]; ξW = NC(Cc1c[nH]c2ccccc12)C(=O)O; ξF = NC(Cc1ccccc1)C(=O)O; Boc = CC(C)(C)OC(=O)*; ξK = NCCCCC(N)C(=O)O; ξT = CC(O)C(N)C(=O)O; tBu = CC(C)(C)*

Tests used:
Experiment in all cases: NCI-60 cell line screen, 48 h
RXF 393 = system: RXF 393
Malme-3M = system: Malme-3M
SK-OV-3 = system: SK-OV-3
UO-31 = system: UO-31
NCI-H23 = system: NCI-H23
NCI/ADR-RES = system: NCI/ADR-RES
HCT-116 = system: HCT-116
HT-29 = system: HT-29
SW-620 = system: SW-620
U-251 = system: U-251
MDA-MB-435 = system: MDA-MB-435
HCC 2998 = system: HCC 2998
ACHN = system: ACHN
NCI-H522 = system: NCI-H522
MDA-MB-231 = system: MDA-MB-231
MCF7 = system: MCF7
HCT-15 = system: HCT-15
MDA-N = system: MDA-N
EKVX = system: EKVX
PC-3 = system: PC-3
LOX IMVI = system: LOX IMVI
K562 = system: K562
SF-539 = system: SF-539
KM12 = system: KM12
SF-268 = system: SF-268
SK-MEL-5 = system: SK-MEL-5
TK-10 = system: TK-10
MOLT-4 = system: MOLT-4
COLO 205 = system: COLO 205
A498 = system: A498
UACC-62 = system: UACC-62
A549 = system: A549
OVCAR-4 = system: OVCAR-4
T47D = system: T47D
CCRF-CEM = system: CCRF-CEM
DU-145 = system: DU-145
SK-MEL-28 = system: SK-MEL-28
786-0 = system: 786-0
NCI-H460 = system: NCI-H460
RPMI-8226 = system: RPMI-8226
HOP-92 = system: HOP-92
OVCAR-8 = system: OVCAR-8
HOP-62 = system: HOP-62
SR = system: SR
IGROV-1 = system: IGROV-1
SNB-75 = system: SNB-75
SF-295 = system: SF-295
NCI-H226 = system: NCI-H226
Hs-578T = system: Hs-578T
OVCAR-5 = system: OVCAR-5
CAKI-1 = system: CAKI-1
SNB-19 = system: SNB-19
M14 = system: M14
UACC-257 = system: UACC-257
SN12C = system: SN12C
OVCAR-3 = system: OVCAR-3
HL-60 = system: HL-60
SK-MEL-2 = system: SK-MEL-2

Measured: GI50

CCC1=C(c2ccc(OC)cc2)CC[C@]2(CCNC2=O)[C@@H]1C
28.7 µM: HCT-15
inactive: RXF 393 55.2 µM | Malme-3M 25.8 µM | SK-OV-3 45.8 µM | UO-31 21.4 µM | NCI-H23 37.4 µM | NCI/ADR-RES 31.2 µM | HCT-116 23.6 µM | HT-29 23.2 µM | SW-620 44.2 µM | U-251 29.9 µM | MDA-MB-435 19.6 µM | HCC 2998 28.4 µM | ACHN 25.6 µM | NCI-H522 18.3 µM | MDA-MB-231 39.1 µM | MCF7 21.9 µM | MDA-N 22.5 µM | EKVX 28.1 µM | PC-3 26.4 µM | LOX IMVI 25.1 µM | K562 21.5 µM | SF-539 28.2 µM | KM12 32 µM | SF-268 33.1 µM | SK-MEL-5 16.8 µM | TK-10 35 µM | MOLT-4 15.8 µM | COLO 205 14.4 µM | A498 31.3 µM | UACC-62 24.4 µM | A549 37.6 µM | OVCAR-4 22 µM | T47D 32.4 µM | CCRF-CEM 24.8 µM | DU-145 33.3 µM | SK-MEL-28 30.5 µM | 786-0 42.5 µM | NCI-H460 28.2 µM | RPMI-8226 16.3 µM | HOP-92 40.7 µM | OVCAR-8 42.4 µM | HOP-62 51.2 µM | SR 24.2 µM | IGROV-1 40.3 µM | SNB-75 27.4 µM | SF-295 30 µM | NCI-H226 37.9 µM | Hs-578T 24.5 µM | OVCAR-5 31.1 µM | CAKI-1 48.3 µM | SNB-19 34.6 µM | M14 26.4 µM | UACC-257 23.7 µM | SN12C 37.8 µM | OVCAR-3 22.7 µM | HL-60 51.3 µM | SK-MEL-2 21.3 µM

CC(OC(C)(C)C)C1NC(=O)C(CCCCNC(=O)OC(C)(C)C)NC(=O)C(Cc2c[nH]c3ccccc23)NC(=O)C(Cc2ccccc2)NC(=O)[C@H]2CCC[C@H]2NC(=O)C(Cc2ccccc2)NC1=O (some centres undefined) (cyclo([X26][ξF][ξW][ξK](Boc)[ξT](tBu)[ξF]))
> 100 µM: HCT-15
inactive: RXF 393 > 100 µM | Malme-3M > 100 µM | SK-OV-3 48 µM | UO-31 > 100 µM | NCI-H23 23.8 µM | NCI/ADR-RES > 100 µM | HCT-116 7.26 µM | HT-29 11.4 µM | SW-620 > 100 µM | U-251 25.5 µM | MDA-MB-435 29.9 µM | HCC 2998 12.2 µM | ACHN > 100 µM | NCI-H522 61.7 µM | MDA-MB-231 31.8 µM | MCF7 11.6 µM | MDA-N 56.2 µM | EKVX > 100 µM | PC-3 6.37 µM | LOX IMVI 16.1 µM | K562 9.57 µM | SF-539 75.9 µM | KM12 > 100 µM | SF-268 > 100 µM | SK-MEL-5 3.13 µM | MOLT-4 14.2 µM | COLO 205 18.9 µM | UACC-62 28.5 µM | A549 73.3 µM | OVCAR-4 > 100 µM | T47D 15.2 µM | CCRF-CEM 9.06 µM | DU-145 93.8 µM | SK-MEL-28 > 100 µM | 786-0 > 100 µM | NCI-H460 38.2 µM | RPMI-8226 8.71 µM | HOP-92 > 100 µM | OVCAR-8 18.2 µM | HOP-62 > 100 µM | SR 72.3 µM | IGROV-1 50.4 µM | SNB-75 5.3 µM | SF-295 9.79 µM | NCI-H226 39.2 µM | Hs-578T 2.67 µM | OVCAR-5 17.9 µM | CAKI-1 > 100 µM | SNB-19 30 µM | M14 28.3 µM | UACC-257 5.41 µM | SN12C 17.2 µM | OVCAR-3 > 100 µM | HL-60 > 100 µM | SK-MEL-2 26.1 µM
